Molecules are shown by their SMILES.

The assay concerns mESC Bmi1-luciferase reporter, firefly/renilla ratio, 24 h. In words: Bmi1-luciferase reporter activators in mESC, dose response, esBAF inhibitor project, mouse embryonic stem cells, cherry-pick (AID 651717).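 Further: luciferase knocked into Bmi1 locus with EF-1a renilla as cell number control; rising ratio signals esBAF inhibition which derepresses Bmi1.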
Turning to `Cc1csc(N/N=C/c2ccccc2F)n1`, the AC40 is 1.01 µM.
The figure for `COc1ccc2c(c1)nc(-c1cccc(Br)c1)c(=O)n2C(c1ccccn1)c1nc2ccccc2[nH]1` (stereo not drawn) is 2.94 µM; for `O=C1NCCC/C1=N/Nc1cc(F)ccc1F` it is 2.6 µM; for `C=CCNc1nc(-c2ccc(O)c(C(N)=O)c2)cs1` it is 6.2 µM.
With `O=C(Nc1ccccc1)c1cc(C2CCCN(C(=O)c3ccccc3)C2)on1` (stereo not drawn) the figure was 4.54 µM.
The figure for `Cc1cc(C)c(N=Cc2c(O)c3ccccc3oc2=O)c(C)c1` is 7.95 µM; for `COc1ccc(C(=O)CCc2ccccc2O)c(OC)c1` it is 3.58 µM.
As for `COc1ccc2c(c1)CC/C(=C/c1ccccn1)C2=O`, the AC40 is 1.86 µM.
With `Cc1ccc(C(=O)CC(=O)c2ccccc2C)c(O)c1` the figure was 9.56 µM; with `Cc1ccc(C)c(NC(=O)c2cc(-c3cc(C)c(C)cc3O)n[nH]2)c1`, 3.77 µM; with `Cc1nc(-c2ccccc2)sc1-c1nnc(C2CC2)o1`, 4.24 µM.
The figure for `Cc1nn(Cc2c(F)c(F)c(F)c(F)c2F)c(C)c1NC(=O)c1ccc(COc2cc(Cl)ccc2Cl)cc1` is 3.23 µM; for `COc1ccc(NC(=O)c2cc(C3CC3)on2)c(OC)c1` it is 11.8 µM; for `Cc1ccc(-c2nc3ccccc3[nH]2)cn1` it is 3.49 µM.
With `CN(CCc1ccccn1)C(=O)CCc1nnc(CCCc2ccccc2)o1` the figure was 4.93 µM; with `CC(=O)c1sc(Nc2ccc(Oc3ccccc3)cc2)nc1C`, 2.08 µM; with `Cc1cc(C)c2c(N)c(C(=O)Nc3ccccc3Br)sc2n1`, 2.16 µM.
`CS(=O)(=O)N1CCc2cc(C(=O)Nc3ccc(Cl)cc3)ccc21`: the AC40 is 6.5 µM.
With `Oc1cccc(Nc2nc(O)c(/C=C3\C=Nc4ccccc43)s2)c1` the figure was 4.88 µM; with `COc1cccc(NC(=O)CN(C)C(=O)CNC(=O)c2sc3ccccc3c2Cl)c1`, 4.99 µM; with `CC(=O)Nc1ccc2c(c1)Cc1c(F)cccc1-2`, 0.977 µM.
Turning to `Cn1c(/N=C(\N)c2ccccc2)nc2ccccc21`, the AC40 was 0.587 µM.
With `CCCCNC(=O)CSc1nc2ccc(N3CCOCC3)cc2c(=O)n1Cc1ccc(OC)cc1` the figure was 11 µM; with `CC(C)c1ccc(NC(=O)c2cccnc2)cc1`, 2.6 µM.
Take `Cc1cc(F)ccc1-c1cc(C(=O)NC2CCCCC2)[nH]n1`: the AC40 is 9.06 µM.
The figure for `Clc1ccc(-c2nc(Cc3ccccc3)no2)cc1` is 1.85 µM.
The figure for `Cc1ccccc1NC(=O)c1ccc2c(c1)N(C)CCS2` is 3.39 µM; for `CCNC(=O)O/N=C(\C)c1sc(-c2ccccc2)nc1C` it is 3.29 µM.
With `COc1ccc(Cl)c(-c2cc(C(=O)Nc3ccc(F)cc3)[nH]n2)c1` the figure was 2.11 µM.
Take `O=C(NNC(=O)c1ccccc1OCc1ccccc1)c1ccccc1F`: the AC40 was 11.5 µM.
With `CN(c1cccc(NC(=O)c2ccc(C(C)(C)C)cc2)c1)S(C)(=O)=O` the figure was 2.97 µM; with `Cc1cc2ncn(C(=O)N3CCC(C)CC3)c2cc1C`, 7.84 µM.
Turning to `CC(C)Cc1ccc(-c2ccc3nccn3c2)cc1`, the AC40 was 1.94 µM.
With `COc1cc(/C=C/c2ccccc2)cc(OC)c1` the figure was 2.93 µM; with `COc1ccc(C(=O)Nc2ccc3nc(C)c(C)nc3c2)cc1`, 8.3 µM.
For `Clc1ccc(-c2nnc(-c3cccc4ccccc34)o2)cc1`, the AC40 is 1.79 µM.
With `Cc1c(C(=O)NCc2cccnc2)sc2nc(-c3ccccc3)cn12` the figure was 30.8 µM; with `CCN(CC(=O)NCc1ccc(F)cc1)C(=O)c1ccc(COc2ccccc2)cc1`, 25.2 µM.
The figure for `COc1ccc2[nH]c(=O)c(-c3nnn(-c4ccccc4)n3)cc2c1` is 11.6 µM.
The figure for `O=C(NCc1ccccn1)Nc1ccc(Br)cc1Cl` is 2.68 µM; for `CCCC1CCC(c2nc(-c3cccnc3)no2)CC1` (stereo not drawn) it is 2.04 µM.
In the case of `COc1ccc(-c2csc(Nc3cccc(C)n3)n2)cc1OC`, the AC40 is 1.44 µM.
On to `CCn1c(SCc2ccccc2Cl)nc2ccccc21`, for which the AC40 was 5.49 µM.

Source of the values: PubChem BioAssay AID651717 (Broad Institute, 2012).
